The results in this text go back to PMC12472391, “Borylated Five-Membered Ring Iminosugars: Synthesis, Spectroscopic Analysis, and Biological Evaluation for Glycosidase Inhibition and Anticancer Properties for Application in Boron Neutron Capture Therapy (BNCT)—Part 1” (Pharmaceuticals, 2025).

SMILES strings stand for the structures.

One may read the inhibition as the relative decrease from the control value, in per cent.

The test system of experiment [1] is HT29 colon carcinoma cells. Kind of experiment: Cancer screening, MTT growth inhibition. The format is cell-based. To be noted: Homo sapiens, 72-h exposure; for inhibition at 25 µM: HT-29, 25 µM, read-out: HT29 Colon Carcinoma, Percentage (%) Cell Growth Inhibition in response to 25 µM of Drug; for GI50: HT-29, dose response, read-out: HT29 Colon Carcinoma, GI50 = Concentration (µM) that inhibits cell growth by 50%. On the procedure:
(§1) Two assays were run: the dose screen to ascertain cell growth inhibition in response to 25 µM of drug (on a blue background) and the dose response (GI50) (on a green background). For a discussion of BNCT as a radiotherapeutic modality, a rationalisation is provided here.
(§2) All test agents were prepared as stock solutions (20 mM) in dimethyl sulfoxide (DMSO) and stored at −20 °C. Cell lines used in the study included HT29, (colorectal carcinoma); U87, SJ-G2, (glioblastoma); MCF-7, (breast carcinoma); A2780 (ovarian carcinoma); H460 (lung carcinoma); A431 (skin carcinoma); Du145 (prostate carcinoma); BE2-C (neuroblastoma) and MiaPaCa-2 (pancreatic carcinoma); together with the one non-tumour derived normal breast cell line (MCF10A). All cell lines were incubated in a humidified atmosphere 5% CO2 at 37 °C. The cancer cell lines were maintained in Dulbecco’s modified Eagle’s medium (DMEM; Sigma, Australia) supplemented with foetal bovine serum (10%), sodium pyruvate (10 mM), penicillin (100 IUmL^−1), streptomycin (100 µg mL^−1), and L-glutamine (2 mM).
(§3) Growth inhibition was determined by plating cells in duplicate in medium (100 µL) at a density of 2500–4000 cells per well in 96-well plates. On day 0 (24 h after plating), when the cells are in logarithmic growth, medium (100 µL) with or without the test agent was added to each well. After a 72-h drug exposure, growth inhibitory effects were evaluated using the MTT (3-(4,5-dimethyltiazol-2-yl)-2,5-diphenyltetrazolium bromide) assay and absorbance read at 540 nm. The percentage growth inhibition was calculated at a fixed concentration of 25 µM, based on the difference between the optical density values on day 0 and those at the end of drug exposure. Each data point is the mean ± the standard error of the mean (SEM) calculated from three replicates, which were performed on separate occasions and separate cell line passages.

For experiment [2], the system named is A2780 ovarian carcinoma cells. Kind of experiment: Cancer screening, MTT growth inhibition. In kind it is cell-based. The note with it: Homo sapiens, 72-h exposure; for inhibition at 25 µM: A2780, 25 µM, read-out: A2780 Ovarian Carcinoma, Percentage (%) Cell Growth Inhibition in response to 25 µM of Drug; for GI50: A2780, dose response, read-out: A2780 Ovarian Carcinoma, GI50 = Concentration (µM) that inhibits cell growth by 50%. On the procedure: as §1, §2, §3

Experiment [3] relates to A431 skin carcinoma cells. Nature of the experiment: Cancer screening, MTT growth inhibition. The format is cell-based. To be noted: Homo sapiens, 72-h exposure; for inhibition at 25 µM: A-431, 25 µM, read-out: A431 Skin Carcinoma, Percentage (%) Cell Growth Inhibition in response to 25 µM of Drug; for GI50: A-431, dose response, read-out: A431 Skin Carcinoma, GI50 = Concentration (µM) that inhibits cell growth by 50%. On the procedure:
as §1, §2, §3

The target of experiment [4] is T1, α-L-fucosidase (from bovine kidney) (Bos taurus, UniProt Q2KIM0).
T1 construct: purchased Sigma-Aldrich Co
T1 sequence (Q2KIM0 23-468): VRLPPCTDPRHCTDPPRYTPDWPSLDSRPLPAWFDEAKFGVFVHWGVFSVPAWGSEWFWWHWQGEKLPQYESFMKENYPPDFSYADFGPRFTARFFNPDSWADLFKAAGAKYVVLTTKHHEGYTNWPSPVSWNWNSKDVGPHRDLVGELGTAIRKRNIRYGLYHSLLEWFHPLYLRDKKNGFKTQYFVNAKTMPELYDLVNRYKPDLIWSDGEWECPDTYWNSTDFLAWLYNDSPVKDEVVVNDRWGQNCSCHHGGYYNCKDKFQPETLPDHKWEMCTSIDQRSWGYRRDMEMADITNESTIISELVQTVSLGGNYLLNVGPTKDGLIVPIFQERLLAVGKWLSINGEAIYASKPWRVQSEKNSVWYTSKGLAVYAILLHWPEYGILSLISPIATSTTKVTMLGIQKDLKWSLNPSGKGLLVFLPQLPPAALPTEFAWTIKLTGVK
Nature of the experiment: Glycosidase inhibition, Table 6 (Laboratory 1). The format is biochemical. The procedure, abridged: (§4)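 pNP-glycoside substrates, 2 mM, optimum pH per enzyme; Na2CO3 400 mM stop; A400 for α-gal, α-glc, α-man and other panel enzymes. Maltase (rat BBM, pH 6.8)/trehalase/amyloglucosidase: maltose 25 mM, 37 °C 10–30 min, heat stop, glucose kit A505. Reactions in methanol.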

In experiment [5] the test system is β-D-glucosidase (bovine liver). Nature of the experiment: Glycosidase inhibition, Table 6 (Laboratory 1). In kind it is biochemical. The method in brief: as §4
Experiment [6] has as its system β-D-mannosidase (from snail). Kind of experiment: Glycosidase inhibition, Table 6 (Laboratory 1). The format is biochemical. The procedure, abridged: as §4
Another experiment concerns SJ-G2 glioblastoma cells. Kind of experiment: Cancer screening, MTT growth inhibition. The format is cell-based. To be noted: SJ-G2, 72-h exposure, read-out: SJ-G2 Glioblastoma, Percentage (%) Cell Growth Inhibition in response to 25 µM of Drug. On the procedure: as §1, §2, §3
The next experiment concerns U87 glioblastoma cells. Kind of experiment: Cancer screening, MTT growth inhibition. In kind it is cell-based. To be noted: 72-h exposure, read-out: U87 Glioblastoma, Percentage (%) Cell Growth Inhibition in response to 25 µM of Drug. On the procedure:
as §1, §2, §3

For experiment [7], the system named is MCF-7 breast carcinoma cells. Nature of the experiment: Cancer screening, MTT growth inhibition. In kind it is cell-based. To be noted: Homo sapiens, MCF7, 72-h exposure, read-out: MCF-7 Breast Carcinoma, Percentage (%) Cell Growth Inhibition in response to 25 µM of Drug. On the procedure: as §1, §2, §3
Experiment [8] has as its system Du145 prostate carcinoma cells. Kind of experiment: Cancer screening, MTT growth inhibition. In kind it is cell-based. The note with it: Homo sapiens, DU-145, 72-h exposure, read-out: Du145 Prostate Carcinoma, Percentage (%) Cell Growth Inhibition in response to 25 µM of Drug. On the procedure: as §1, §2, §3
Experiment [9] relates to BE2-C neuroblastoma cells. Nature of the experiment: Cancer screening, MTT growth inhibition. The format is cell-based. To be noted: Homo sapiens, BE(2)-C, 72-h exposure, read-out: BE2-C Neuroblastoma, Percentage (%) Cell Growth Inhibition in response to 25 µM of Drug. On the procedure: as §1, §2, §3

Take `OC[C@H](O)[C@@H]1[C@H](O)[C@H](O)CN1Cc1ccc(B(O)O)cc1` [para 8, N-(4-Methylphenylboronic acid)-1,4-dideoxy-1,4-imino-L-gulitol]: the inhibition at 25 µM in experiment [1] was 5 ± 2%; in experiment [2] it was 14 ± 7%; in experiment [3] it was 0%. The GI50 in [1], in experiment [2] and in experiment [3] was greater than 50 µM throughout. Besides, in experiment [4], the inhibition at 1000 µM worked out at 1.7%. The “β-D-Glucosidase Bovine Liver, inhibition % at 1000 μM” value in experiment [5] is recorded as “^a NI ^b (27.1%)”. In addition, the “β-D-Mannosidase Snail, inhibition % at 1000 μM” value in experiment [6] is “^a NI ^b (6.9%)”.

As for `OB(O)c1ccc(CN2CC(O)C3OC(O)C(O)C32)cc1` [para 7, N-(4-Methylphenylboronic acid)-3,6-dideoxy-3,6-imino-D-gulofuranose], the inhibition at 25 µM in experiment [1] worked out at 15 ± 3%; in experiment [2], 27 ± 2%; in [3] it was 9 ± 5%. For the same compound, the GI50 in experiment [1], in [2] and in [3] was greater than 50 µM each time. The compound also had an inhibition at 1000 µM in experiment [4] of 0.8%. Further, the “β-D-Glucosidase Bovine Liver, inhibition % at 1000 μM” value in experiment [5] is recorded as “^a NI ^b (38.8%)”. Further, the “β-D-Mannosidase Snail, inhibition % at 1000 μM” value in experiment [6] is on record as “^a NI ^b (4.1%)”.

As for `OC1O[C@@H]2[C@H]([C@H]1O)N(Cc1ccccc1)C[C@H]2O` (stereo partly drawn) [Compound 4, N-Benzyl-3,6-dideoxy-3,6-imino-D-gulofuranose], the inhibition at 25 µM in experiment [1] is 11%; in the experiment on SJ-G2 glioblastoma cells it was 12%; in the experiment with U87 glioblastoma cells it was 8%; in experiment [2] it was 15%; in experiment [7], 9%; in experiment [3], 11%. Besides, the inhibition at 25 µM came to 0% in experiment [8] and 12% in experiment [9]. Also, in [4], testing at 1000 µM gave an inhibition of 0.4%. For the same compound, in experiment [5], the “β-D-Glucosidase Bovine Liver, inhibition % at 1000 μM” value is listed as “^a NI ^b (16.4%)”. For the same compound, in experiment [6], the “β-D-Mannosidase Snail, inhibition % at 1000 μM” value is given as “^a NI ^b (1.0%)”.

For `CC1(C)O[C@H]2O[C@H]3[C@@H]([C@H]2O1)N(Cc1ccc(B2OC(C)(C)C(C)(C)O2)cc1)C[C@H]3O` [para 6, N-(4-Methylphenylboronic acid pinacol ester)-3,6-dideoxy-3,6-imino-1,2-O-isopropylidene-α-D-gulofuranose], the inhibition at 25 µM in experiment [1] stood at 8%; with SJ-G2 glioblastoma cells, 9%; with U87 glioblastoma cells, 7%; in [2], 14%; in [7], 3%; in [3] it was 6%. The results for the inhibition at 25 µM in [8] and in [9] were less than 0% and 5%, respectively. In experiment [4], this compound came in with an inhibition at 100 µM of 0%. Besides, the “β-D-Glucosidase Bovine Liver, inhibition % at 100 μM” value in [5] was “^c NI ^d (13%)”. For the same compound, in [6], the “β-D-Mannosidase Snail, inhibition % at 100 μM” value is given as “^c NI ^d (0%)”.

Regarding `OC[C@H](O)[C@@H]1[C@H](O)[C@H](O)CN1Cc1ccccc1` [Compound 5, N-Benzyl-1,4-dideoxy-1,4-imino-L-gulitol], the results for the inhibition at 25 µM in [1], in experiment [2] and in experiment [3] were 2 ± 3%, 13 ± 6% and 2%, respectively. For the same compound, the GI50 in experiment [1], in experiment [2] and in experiment [3] was greater than 50 µM each time. The “β-D-Glucosidase Bovine Liver, inhibition % at 100 μM” value in [5] was “^c NI ^d (3.3%)”. In experiment [6], the “β-D-Mannosidase Snail, inhibition % at 100 μM” value is “^c NI ^d (6.9%)”.

In the case of `N[C@@H](Cc1ccc(B(O)O)cc1)C(=O)O` [BPA, 4-borono-L-phenylalanine, reference compound], the inhibition at 25 µM in [1] is 14%; in the experiment on SJ-G2 glioblastoma cells, 5%; in the experiment on U87 glioblastoma cells it was less than 0%; in [2], 4%; in experiment [7], less than 0%; in experiment [3] it was 4%. In addition, the inhibition at 25 µM in experiment [8] was found to be 19%; in [9], 13%. Further, in experiment [5], the “β-D-Glucosidase Bovine Liver, inhibition % at 100 μM” value is given as “^c NI ^d (0%)”. Also, the “β-D-Mannosidase Snail, inhibition % at 100 μM” value in experiment [6] is given as “^c NI ^d (2.1%)”.
